Measured values as given in patent US20100075907A1, “NEUROMEDIN U RECEPTOR AGONISTS AND USES THEREOF” (priority 2006, published 2010).
Non-standard residues stand in square brackets, D forms with d. Residues, ends and D or L forms follow the SMILES beside them. *: point of attachment. Succinimide(1-Et,3-yl) = CCN1C(=O)CC(*)C1=O; Palmitoyl = CCCCCCCCCCCCCCCC(=O)*

Tests used:
Format in all cases: cell-based
[1] = target: T1, mouse NMUR1-ATG (Mus musculus, UniProt O55040); test: FLIPR calcium mobilization assay, mouse NMUR1-ATG; parameters: expressed in transfected cells; host or cells: FLP-In CHO or HEK-293 FLP-In cells (pcDNA5); details: for IC50: functional data; for EC50: FLIPR
T1 sequence (O55040 1-428): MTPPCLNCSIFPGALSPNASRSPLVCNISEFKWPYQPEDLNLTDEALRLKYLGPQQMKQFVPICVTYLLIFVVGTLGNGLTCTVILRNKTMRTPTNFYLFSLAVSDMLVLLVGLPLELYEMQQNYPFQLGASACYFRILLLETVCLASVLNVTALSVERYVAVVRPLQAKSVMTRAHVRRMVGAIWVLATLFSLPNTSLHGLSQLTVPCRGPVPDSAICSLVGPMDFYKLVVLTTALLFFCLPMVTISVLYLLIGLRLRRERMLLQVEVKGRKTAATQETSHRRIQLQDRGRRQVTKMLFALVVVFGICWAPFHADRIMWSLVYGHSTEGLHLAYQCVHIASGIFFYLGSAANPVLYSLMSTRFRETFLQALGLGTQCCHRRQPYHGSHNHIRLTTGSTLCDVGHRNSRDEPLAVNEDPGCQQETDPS
Text: (§1) Human, mouse or rat cDNAs encoding NMUR1 or NMUR2 (as described in Howard et al. Nature 406: 70-74 (2000) were subcloned in pcDNA5 (Invitrogen) and transfected into FLP-In CHO cells and HEK-293 FLP-In cells purchased from Invitrogen (Carlsbad, Calif.) using lipofectamine (Invitrogen). The Flp-In system allows integration and expression of a particular gene of interest at a specific genomic location utilizing the Flp recombinase from yeast. The transfected cells were selected by growth in medium containing 200 μg/mL hygromycin (Invitrogen). Populations were frozen at early passage numbers, and these stocks were used for further studies. Stable clones that expressed the mRNAs were identified functionally by FLIPR as well as by RT-PCR. […] Two different rodent NMUR1 cell lines were thus generated: one with the codon as predicted from the genomic databases and another cell line with an engineered methionine (ATG) as the start codon. Additionally, stable cell lines expressing the human receptors were generated in HEK-293/aeq17 cells which stably express the aequorin gene under the CMV promoter. The human NMUR2 cDNA was cloned into pcDNA3.1 and human NMUR1 was subcloned into pIRES-puro (Clontech, Mountain View, Calif.), after transfection cells were selected in media containing G418 and either hygromycin (NMUR2) or puromycin (NMUR1).
(§2) The NMU receptors signal primarily through Gαq/11 proteins; therefore calcium mobilization assays can be utilized for functional activity.
(§3) Stable cell lines expressing human and or rodent NMUR1 or human NMUR2 receptors were plated at a density of 12,000 cells per well overnight on poly-lysine coated 384-well black-walled plates. The following day, the media was removed from the plates and the cells were subsequently loaded with Fluo-3 (Molecular Probes), a calcium sensitive dye, diluted in FLIPR buffer (1× Hank's buffered saline containing 20 mM HEPES, 0.1% BSA, 2.5 mM probenecid (Sigma) and 1.6 mM TR40). All reagents are from Invitrogen unless otherwise noted. Peptide stocks were resuspended in DMSO at a stock concentration of 2 mM and diluted in FLIPR buffer on the day of the experiment to a 4 μM working stock solution.
(§4) After a 90 minute incubation at room-temperature, cell plates were loaded onto a FLIPR (Molecular Devices) to monitor cellular fluorescence (excitation=488 nm; emission=540 nm) before and after compound/peptide addition. Eight to twelve point dose responses were tested on NMUR-expressing cell lines using FLIPR with 1 μM peptide as the highest dose. The response after peptide addition was taken as the maximum fluorescence units minus the fluorescence immediately prior to stimulation for each well. EC50 values were calculated using GraphPad Prism (San Diego, Calif.) software.
(§5) In vitro responses of Neuromedin U receptor agonists (NMU1 to NMU25) in the FLIPR assay for human (Table 3), mouse (Table 4) and rat (Table 5) NMUR1 and NMUR2. EC50s are reported in nM values. Percent activity refers to the maximum response at 1 μM compared to the hNMU-25 response at the same concentration. NT=not tested.

[2] = target: T2, rat NMUR1-ATG (Rattus norvegicus, UniProt Q9JJI5); test: FLIPR calcium mobilization assay, rat NMUR1-ATG; parameters: expressed in transfected cells; host or cells: FLP-In CHO or HEK-293 FLP-In cells (pcDNA5); details: for IC50: functional data; for EC50: FLIPR
T2 sequence (Q9JJI5 1-425): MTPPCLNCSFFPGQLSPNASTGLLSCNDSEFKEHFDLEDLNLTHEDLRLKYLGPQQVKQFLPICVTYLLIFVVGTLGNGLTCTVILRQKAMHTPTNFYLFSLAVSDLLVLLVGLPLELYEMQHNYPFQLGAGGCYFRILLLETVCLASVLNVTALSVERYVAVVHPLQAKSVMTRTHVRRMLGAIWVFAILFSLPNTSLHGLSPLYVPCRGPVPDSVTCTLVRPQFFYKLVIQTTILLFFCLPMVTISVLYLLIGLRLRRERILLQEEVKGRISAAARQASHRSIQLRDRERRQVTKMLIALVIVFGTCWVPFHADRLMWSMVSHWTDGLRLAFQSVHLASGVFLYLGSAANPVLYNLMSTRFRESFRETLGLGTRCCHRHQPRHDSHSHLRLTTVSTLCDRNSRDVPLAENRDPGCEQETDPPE
Text: as §1, §2, §3, §4, §5

[3] = target: T3, hNMUR1 (Homo sapiens, UniProt Q9HB89); test: FLIPR calcium mobilization assay, human NMUR1; parameters: expressed in transfected cells; host or cells: FLP-In CHO or HEK-293 FLP-In cells (pcDNA5); HEK-293/aeq17 lines (pIRES-puro) were also made; details: for EC50: FLIPR
T3 sequence (Q9HB89 1-426): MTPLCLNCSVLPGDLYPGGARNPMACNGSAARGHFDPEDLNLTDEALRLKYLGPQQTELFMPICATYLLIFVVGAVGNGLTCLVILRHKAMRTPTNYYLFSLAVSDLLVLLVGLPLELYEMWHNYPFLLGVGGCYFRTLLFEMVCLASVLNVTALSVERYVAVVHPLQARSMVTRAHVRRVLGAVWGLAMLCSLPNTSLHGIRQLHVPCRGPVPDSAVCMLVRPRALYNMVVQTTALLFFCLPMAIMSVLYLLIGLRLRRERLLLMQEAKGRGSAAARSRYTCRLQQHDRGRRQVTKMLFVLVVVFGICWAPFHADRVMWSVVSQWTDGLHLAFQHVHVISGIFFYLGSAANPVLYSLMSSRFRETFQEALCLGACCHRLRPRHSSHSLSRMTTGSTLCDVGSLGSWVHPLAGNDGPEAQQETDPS
Text: as §1, §2, §3, §4, §5

[4] = maximum response at 1 μM compared to hNMU-25 response at same concentration, human NMUR1
[5] = maximum response at 1 μM compared to hNMU-25, mouse NMUR1-ATG
[6] = maximum response at 1 μM compared to hNMU-25, rat NMUR1-ATG
[7] = functional, human R1, relative to native hNMU responses
[8] = functional, mouse R1-ATG, relative to native hNMU responses
[9] = functional, rat R1-ATG, relative to native hNMU responses

Compound: H-FRVDEEFQSPFASQSRGYFLFRPRN-NH2 [hNMU-25, reference compound]
- IC50 ([1]; mouse R1-ATG): 0.9 nM
- IC50 ([2]; rat R1-ATG): 1.3 nM

Compound: CCN1C(=O)CC(SC[C@H](NC(C)=O)C(=O)N[C@@H](C)C(=O)N[C@@H](CO)C(=O)N[C@@H](CCC(N)=O)C(=O)N[C@@H](CO)C(=O)N[C@@H](CCCNC(=N)N)C(=O)NCC(=O)N[C@@H](Cc2ccc(O)cc2)C(=O)N[C@@H](Cc2ccccc2)C(=O)N[C@@H](CC(C)C)C(=O)N[C@@H](Cc2ccccc2)C(=O)N[C@@H](CCCNC(=N)N)C(=O)N2CCC[C@H]2C(=O)N[C@@H](CCCNC(=N)N)C(=O)N[C@@H](CC(N)=O)C(N)=O)C1=O (some centres unmarked) [NMU17] (Ac-C(Succinimide(1-Et,3-yl))ASQSRGYFLFRPRN-NH2)
- % Activity [3, 4]: 100%
- % Activity [1, 5]: 100%
- % Activity [2, 6]: 100%

Compound: CCCCCCCCCCCCCCCC(=O)N[C@@H](CSC1CC(=O)N(CC)C1=O)C(=O)N[C@@H](Cc1ccccc1)C(=O)N[C@@H](CCCNC(=N)N)C(=O)N[C@H](C(=O)N[C@@H](CC(=O)O)C(=O)N[C@@H](CCC(=O)O)C(=O)N[C@@H](CCC(=O)O)C(=O)N[C@@H](Cc1ccccc1)C(=O)N[C@@H](CCC(N)=O)C(=O)N[C@@H](CO)C(=O)N1CCC[C@H]1C(=O)N[C@@H](Cc1ccccc1)C(=O)N[C@@H](C)C(=O)N[C@@H](CO)C(=O)N[C@@H](CCC(N)=O)C(=O)N[C@@H](CO)C(=O)N[C@@H](CCCNC(=N)N)C(=O)NCC(=O)N[C@@H](Cc1ccc(O)cc1)C(=O)N[C@@H](Cc1ccccc1)C(=O)N[C@@H](CC(C)C)C(=O)N[C@@H](Cc1ccccc1)C(=O)N[C@@H](CCCNC(=N)N)C(=O)N1CCC[C@H]1C(=O)N[C@@H](CCCNC(=N)N)C(=O)N[C@@H](CC(N)=O)C(N)=O)C(C)C (some centres unmarked) [NMU24] (Palmitoyl-C(Succinimide(1-Et,3-yl))FRVDEEFQSPFASQSRGYFLFRPRN-NH2)
- % Activity [3, 4]: 34.4%
- % Activity [1, 5]: 81.4%
- % Activity [2, 6]: 80.8%

Compound: H-FRVDEEFQSPFASQSRPYFLFRPRN-NH2 [NMU4]
- % Activity [3, 4]: 97.0%
- % Activity [1, 5]: 100%
- % Activity [2, 6]: 100%

Compound: Ac-C2FRVDEEFQSPFASQSRGYFLFRPRN-CONH2 [NMU9] ({Ac-C(PEG 40 kDa)}-FRVDEEFQSPFASQSRGYFLFRPRN-NH2) [C2 = Cys(PEG)240 kDa from Nektar (mPEG2-MAL-40 k)]
- EC50 ([3]; human NMUR1): 50.6 nM
- % Activity [3, 4]: 94.4%
- EC50 ([1]; mouse NMUR1-ATG): 45.7 nM
- % Activity [1, 5]: 95.0%
- EC50 ([2]; rat NMUR1-ATG): 9.7 nM

Compound: Ac-FRVDEEFQSPFASQSRPYFLFRPRN-NH2 [NMU5]
- % Activity [3, 4]: 98.1%
- % Activity [1, 5]: 100%
- % Activity [2, 6]: 100%

Compound: CC(C)C[C@@H](NC(=O)[C@H](Cc1ccccc1)NC(=O)[C@H](Cc1ccc(O)cc1)NC(=O)CNC(=O)[C@H](CCCNC(=N)N)NC(=O)[C@H](CO)NC(=O)[C@H](CCC(N)=O)NC(=O)[C@H](CO)NC(=O)[C@H](C)NC(=O)[C@H](Cc1ccccc1)NC(=O)[C@@H]1CCCN1C(=O)[C@H](CO)NC(=O)[C@H](CCC(N)=O)NC(=O)[C@H](Cc1ccccc1)NC(=O)[C@H](CCC(=O)O)NC(=O)[C@H](CCC(=O)O)NC(=O)[C@H](CC(=O)O)NC(=O)[C@@H](NC(=O)[C@H](CCCNC(=N)N)NC(=O)[C@@H](N)Cc1ccccc1)C(C)C)C(=O)N[C@@H](Cc1c[nH]c2ccccc12)C(=O)N[C@@H](CCCNC(=N)N)C(=O)N1CCC[C@H]1C(=O)N[C@@H](CCCNC(=N)N)C(=O)N[C@@H](CC(N)=O)C(N)=O [Agonist H] (H-FRVDEEFQSPFASQSRGYF[dL]WRPRN-NH2; N-terminus assumed)
- % Activity [3, 7]: 90%
- IC50 ([1]; mouse R1-ATG): 25 nM
- % Activity [1, 8]: 90%
- IC50 ([2]; rat R1-ATG): 31.1 nM
- % Activity [2, 9]: 95%

Compound: Ac-C4-C4-FRVDEEFQSPFASQSRGYFLFRPRN-CONH2 ({Ac-C(PEG 20 kDa)-C(PEG 20 kDa)}-FRVDEEFQSPFASQSRGYFLFRPRN-NH2) [NMU23, C4 = Cys(PEG)20 kDa]
- EC50 ([3]; human NMUR1): 300 nM
- % Activity [3, 4]: 66.9%
- EC50 ([1]; mouse NMUR1-ATG): 14 nM
- EC50 ([2]; rat NMUR1-ATG): 127 nM
- % Activity [2, 6]: 76.4%

Compound: CCN1C(=O)CC(SC[C@H](NC(C)=O)C(=O)N[C@@H](Cc2ccccc2)C(=O)N[C@@H](CCCNC(=N)N)C(=O)N[C@H](C(=O)N[C@@H](CC(=O)O)C(=O)N[C@@H](CCC(=O)O)C(=O)N[C@@H](CCC(=O)O)C(=O)N[C@@H](Cc2ccccc2)C(=O)N[C@@H](CCC(N)=O)C(=O)N[C@@H](CO)C(=O)N2CCC[C@H]2C(=O)N[C@@H](Cc2ccccc2)C(=O)N[C@@H](C)C(=O)N[C@@H](CO)C(=O)N[C@@H](CCC(N)=O)C(=O)N[C@@H](CO)C(=O)N[C@@H](CCCNC(=N)N)C(=O)NCC(=O)N[C@@H](Cc2ccc(O)cc2)C(=O)N[C@@H](Cc2ccccc2)C(=O)N[C@H](C)C(=O)N[C@@H](Cc2c[nH]c3ccccc23)C(=O)N[C@@H](CCCNC(=N)N)C(=O)N2CCC[C@H]2C(=O)N[C@@H](CCCNC(=N)N)C(=O)N[C@@H](CC(N)=O)C(N)=O)C(C)C)C1=O (some centres unmarked) [NMU13] (Ac-C(Succinimide(1-Et,3-yl))FRVDEEFQSPFASQSRGYF[dA]WRPRN-NH2)
- % Activity [3, 7]: 91%
- % Activity [3, 4]: 100%
- % Activity [1, 8]: 96%
- % Activity [1, 5]: 98.6%
- % Activity [2, 9]: 92%
- % Activity [2, 6]: 100%
